The results in this text go back to patent US20220194962A1, “AZAZINOINDAZOLE DERIVATIVE, PREPARATION METHOD THEREFOR AND USE THEREOF” (CHENGDU SCIMOUNT PHARMATECH CO., LTD., priority 2019, published 2022).

This assay deals with T1, human 5-HT3 receptor (Homo sapiens, UniProt P46098).
T1 sequence (P46098 24-478): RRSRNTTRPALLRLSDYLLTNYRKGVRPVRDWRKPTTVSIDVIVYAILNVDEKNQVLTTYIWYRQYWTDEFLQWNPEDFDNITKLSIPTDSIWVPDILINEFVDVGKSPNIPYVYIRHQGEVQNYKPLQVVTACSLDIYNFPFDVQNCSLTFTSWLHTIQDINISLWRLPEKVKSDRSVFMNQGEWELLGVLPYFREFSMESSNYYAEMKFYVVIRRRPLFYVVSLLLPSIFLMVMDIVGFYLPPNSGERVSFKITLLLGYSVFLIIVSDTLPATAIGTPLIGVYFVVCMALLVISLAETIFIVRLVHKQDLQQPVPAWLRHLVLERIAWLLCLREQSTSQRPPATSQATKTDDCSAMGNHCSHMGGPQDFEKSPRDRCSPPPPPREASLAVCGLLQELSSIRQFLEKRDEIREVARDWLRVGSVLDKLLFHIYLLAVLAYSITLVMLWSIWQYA
The assay is described as follows: Affinity for human 5-HT3 receptor by scintillation proximity assay (SPA), [9-methyl-3H]BRL-43694 competition. Type of assay: binding. The method, then: The relative affinity of the compound to human 5-HT3 receptor was detected by scintillation proximity assay (SPA). The specific procedures were as follows: the test compound was diluted to 10 mM with 100% DMSO, and then subjected to 10× gradient dilution with 100% DMSO in a 96-well plate, and each of the resultant solution was further diluted with the test buffer to provide 4× test concentration. The sample, 10 nM of [9-methyl-3H]BRL-43694, 3 μg of human 5-HT3 receptor membrane, and 0.5 mg/mL of SPA beads were incubated in 50 mM Tris-HCl (pH 7.5, 3 mM MgCl2, 1 mM EDTA and 10% DMSO), with a final volume of 0.2 mL. By successively adding 50 μL of competitive test compound or buffer, SPA beads, radioactive ligands and 5-HT3 receptor membrane, the binding reaction was performed in the wells of PicoPlates-96 well plate. After it was stirred and incubated overnight at room temperature, the plate was centrifuged at 1500 rpm for 15 min, and then incubated in dark for 30 min. Finally, the 5-min radioactivity was read in the TopCount microplate counter. Total binding control only contained the above buffer used to dilute the test compound, while the nonspecific binding was determined at the presence of 30 μM MDL-72222, and thus the specific binding was deduced by the total binding control minus the nonspecific binding. All experiments were carried out by ten concentrations of competitive ligand, and each group was established multiple holes. ALB-137391 was used as positive control.
ALB-137391 was a 5-HT3 receptor partial agonist, and provided by AMRI company, USA, with a production batch number of 1631-B-R0-01-43-01. The structure was as follows:
The half inhibitory concentration (IC50) was determined from the specific binding data by using XLfit4.1 curve fitting software of IDBS Ltd.
Inhibition constant Ki=IC50/(1+(L/KD)), wherein L=the concentration of radioactive ligands in the test, KD=the affinity of radioactive ligands to receptors.
A general note: In a scintillation proximity assay essentially only radioactivity close to the scintillant gives light.

Read-outs that look alike come from different tables or passages of the source.

A word on the IC50: it is the concentration needed to halve the response being measured. The term Ki denotes the dissociation constant of the complex between target and ligand, obtained from inhibition or displacement. Lower therefore signals tighter binding. Regarding `O=C1c2ccc(O)c3[nH]nc(c23)CCN1[C@@H]1CN2CCC1CC2` [Compound 12, (S)-3-hydroxyl-7-(quinuclidin-3-yl)-2,7,8,9-tetrahydro-6H-azepino[5,4,3-cd]indazole-6-one], the IC50 turned out to be 0.014 µM and affinity was put at a Ki of 0.00253 µM. Moreover, under “summary of Table 1”, the “affinity to human 5-HT3 receptor (in words)” value (“affinity … (in words)” below) is reported as “strong affinity”.
In turn, `O=C1c2ccc(Cl)c3[nH]nc(c23)CCN1[C@@H]1CN2CCC1CC2` [Compound 15, (S)-3-chloro-7-(quinuclidin-3-yl)-2,7,8,9-tetrahydro-6H-azepino[5,4,3-cd]indazole-6-one] registered an IC50 of 0.0471 µM and a Ki of 0.00853 µM. Besides, under “summary of Table 1”, the “affinity … (in words)” value was “strong affinity”.
The molecule `O=C1c2cccc3[nH]nc(c23)CCN1[C@@H]1CN2CCC1CC2` [ALB-137391, reference compound] returned an IC50 of 0.00448 µM and a Ki of 0.00081 µM.
In turn, `[2H]c1ccc2c3c(n[nH]c13)CCN([C@@H]1CN3CCC1CC3)C2=O` [Compound 13, (S)-3-deutero-7-(quinuclidin-3-yl)-2,7,8,9-tetrahydro-6H-azepino[5,4,3-cd]indazole-6-one] registered a 50% inhibitory concentration (IC50) of 0.00331 µM and a Ki of 0.0006 µM. In addition, where the note is “summary of Table 1”, the “affinity and inhibitory effect on 5-HT3 receptor compared with positive control ALB-137391” value is given as “even better than that of positive control ALB-137391”; the “affinity … (in words)” value is given as “strong affinity”.
Regarding `O=C1c2ccc(F)c3[nH]nc(c23)CCN1[C@@H]1CN2CCC1CC2` [Compound 14, (S)-3-fluoro-7-(quinuclidin-3-yl)-2,7,8,9-tetrahydro-6H-azepino[5,4,3-cd]indazole-6-one], the 50% inhibitory concentration (IC50) stood at 0.074 µM and the Ki turned out to be 0.0134 µM. For the setting “summary of Table 1”, the “affinity … (in words)” value is recorded as “strong affinity”.
Take `N#Cc1ccc2c3c(n[nH]c13)CCN([C@@H]1CN3CCC1CC3)C2=O` [Compound 11, (S)-3-cyano-7-(quinuclidin-3-yl)-2,7,8,9-tetrahydro-6H-azepino[5,4,3-cd]indazole-6-one]: the Ki was determined as 0.0651 µM. For the same molecule, for the setting “human 5-HT3 receptor membrane, 10 nM [9-methyl-3H]BRL-43694, SPA, overnight at room temperature, read-out: IC50”, the IC50 worked out at 0.359 µM.
Consider `O=C1c2ccc(Br)c3[nH]nc(c23)CCN1[C@@H]1CN2CCC1CC2` [Compound 10, (S)-3-bromo-7-(quinuclidin-3-yl)-2,7,8,9-tetrahydro-6H-azepino[5,4,3-cd]indazole-6-one], for which the IC50 came out at 0.0342 µM and the Ki worked out at 0.0062 µM. The “affinity … (in words)” value (summary of Table 1) is listed as “strong affinity”.
